These results are taken from patent US20200123146A1, “HETEROCYCLIC INTEGRIN AGONISTS” (GB006, Inc., priority 2016, published 2020).

Usually EC50 stands for the concentration giving half of the maximal effect. Low values mean a more potent agent, high ones a less potent agent. For orientation: Tmax means the time from dosing to the highest level. One may read the half-life as how long it takes for the measured level to halve. The low end stands for fast loss, the high end for slow loss. The term AUC(0-t) denotes exposure summed from dosing to a finite time, without extrapolation to infinity. Higher therefore signals more exposure. The term Cmax denotes the peak of the concentration-time curve.

Data set [1] has as its target T1, integrin CD11b/CD18 (K562 CD11b/CD18 cells) (Homo sapiens, UniProt P05107+P11215).
T1 construct: host or cells: K562 cells stably transfected with wild-type CD11b/CD18
Put plainly: K562 cell adhesion assay with immobilized ligands. The settings on record: cell-based adhesion assay, K562 cells, 30 min at 37° C. Type of data set: cell-based. From the text:
(§1) Cell Lines. K562 cells (ATCC) stably transfected with wild-type integrin CD11b/CD18 (K562 CD11b/CD18) have been described previously (Park, etal. J Biomol Screen, 2007. 12(3): 406; Gupta, et al., Blood, 2007. 109(8): 3513; incorporated herein by reference in their entirety). Mutant CD11bE320A has been described previously (Alonso, et al. Curr Biol, 2002. 12(10): R340; incorporated herein by reference in its entirety). K562 cells stably transfected with mutant integrin CD11bE320A/CD18 (K562 E320A) were generated according to literature protocols (Park, supra; Gupta, supra). All cell lines were maintained in Iscove's Modified Dulbecco's Medium (IMDM) supplemented with 10% heat-inactivated fetal bovine serum, 50 IU/ml penicillin and streptomycin and 0.5 mg/ml G418.
(§2) K562 Cell Adhesion Assay. Cell adhesion assays with immobilized ligands were performed as previously described (Park, supra). Assays with all different K562 cell lines (K562, K562 CD11b/CD18 and K562 E320A) were performed in an identical fashion. Briefly, 384-well Highbind microtiter plates were coated with a 30 μL solution of ligand in Phosphate Buffered Saline, pH 7.4 containing 1 mM each of Ca^2+ and Mg^2+ ions (PBS^++) overnight at 4° C. Ligand Fg was coated at a concentration of 5-15 μg/mL and iC3b at 1-5 μg/mL. Heterodimer specific mAb IB4 was coated at 1-20 μg/mL. Subsequently, the non-specific sites in the wells were blocked by incubation with 1% non-fat milk in Tris Buffered Saline (TBS), pH 7.4, at room temperature for 1 h. Next, the wells were washed three times with TBS. K562 cells were suspended in the assay buffer (TBS containing 1 mM each of Ca^2+ and Mg^2+ ions (TBS^++)) and were transferred to the ligand-coated wells (30,000 cells/well). Stock solutions of the integrin agonists were prepared by dissolving the compounds in DMSO at a concentration of 2-10 mM. Final concentration of DMSO in the assay was approximately 1-2%. K562 cells were incubated in the presence of increasing concentration of integrin agonist for 30 min at 37° C. To dislodge non-adherent cells, the assay plates were gently inverted and kept in the inverted position for 30 min at room temperature. Cells remaining adherent were fixed using formaldehyde and were quantitated using imaging microscopy, as previously described (Park, supra).

The target in data set [2] is T2, integrin CD11b/CD18 (K562 CD11b/CD18 cells) (Homo sapiens, UniProt P11215).
T2 construct: host or cells: K562 cells stably transfected with wild-type CD11b/CD18
Put plainly: K562 cell adhesion assay with immobilized ligands. It counts as cell-based. Conditions: for activity level in adhesion assay: compared with the other compounds in the study.
From the text: as §1, §2

Data set [3] can be described thus: Pharmacokinetic properties after PO/IV cassette dosing. Type of data set: in vivo, Balb/C mice. The settings on record: mouse, plasma; for Vd: read-out: Vdss; for AUC(0-t): PO 10 mg/kg and/or IV 1 mg/kg cassette dose; for bioavailability: head prints Rat, method Balb/C mice, PO 10 mg/kg, IV 1 mg/kg cassette dose, read-out: Rat F %. How it is done: Integrin agonists as described above were administered to Balb/C mice orally (PO; gavage; 10 mg/kg) and/or intravenously (IV; bolus through tail vein; 1 mg/kg) as a cassette dose with 2 to 3 compounds dosed at a time. A total of twelve mice between age 5-6 weeks with a body weight range of 24-28 g were used. The feeding regimen included 4 h fasting and the feed was provided 2 h after the dosage inoculation and water was provided ad libitum. The blood collection schedule for PO was at 0.25, 0.5, 1, 2, 4, 8,10 and 24 h, and for IV it was at 0.12, 0.25, 0.5, 1, 2, 4, 8 and 24 h post-dose administration under isoflurane anesthesia. For PO dosage, a suspension formulation in 0.2% Tween-80 and 99.8% methyl cellulose (0.5% in water) was prepared in milli-Q water; for IV dosage, a solution formulation in 5% DMSO, 5% Solutol:absolute alcohol (1:1, v/v), and 90% normal saline was prepared.
Dose preparation: For PO dosage, each integrin agonist was wetted with Tween-80 and triturated in a mortar and pestle, and then 0.5% of methyl cellulose was slowly added to make up the final volume for administration. For IV dosage, each integrin agonist was dissolved in DMSO and Solutol:absolute ethanol (1:1, v/v), vortexed, and combined with normal saline.
Methodology for preparation of CC/QC samples: 5 μL of working stock solution was spiked in to 45 μL of blank plasma to obtain the desired concentration in pre-labeled vials. To it was added 250 μL of 100% acetonitrile containing internal standard (tolbutamide: 100 ng/mL) and the sample was vortexed for 2 min followed by centrifugation for 5 min at 20,817×g at 4° C. Supernatant was separated and 5 μL of same was injected on LC-MS/MS.
Data Analysis: Na2EDTA plasma samples were analyzed using a fit-for-purpose LC-MS/MS method.

For another data set, the system named is CT26 cells. The experiment in a line: Syngeneic colon cancer mouse model using CT-26 cell line. Type of data set: in vivo, BALB/c mice. Conditions: Day 21, female Balb/C, 10 mg/kg PO BID. As for the experimental part:
Compound 1, compound 8, and compound 12 were dosed at 10 mg/kg BID oral daily for 21 days in a syngeneic colon cancer mouse model using CT-26 cell line. CT26 cells were injected subcutaneously into right flank of female BALB/c mice, aged 7-8 weeks, on Day 1. Tumors were grown for 11 days and dosing was begun and dosed daily for 21 days. Tumor volume/growth (TV=Length×Width 2/2) was measured two times a week. Body weight was measured twice weekly. At the end of study tumor tissue and serum was collected and preserved. Morbidity and Mortality was monitored during the course of study.

Setting [4] is: Balb/C, IV 1 mg/kg and/or PO 10 mg/kg cassette dose.

A value given as a limit tells only on which side of the number the result lay.

`O=C(O)c1ccc(-c2ccc(/C=C3\OC(=S)N(Cc4ccccc4)C3=O)o2)cc1` [Compound 1, (Z)-4-(5-((3-Benzyl-4-oxo-2-thioxooxazolidin-5-ylidene)methyl)furan-2-yl)benzoic acid] gave a concentration for a half-maximal effect (EC50) in data set [1] of 250 to 1000 nM. For the same compound, in data set [2] (relative to compound 4), the “fold more active in promoting adhesion than imidazolidine compound 4” value is recorded as “greater than 7 fold”. Also, in data set [2] (relative to compound 5), the “fold more active in promoting adhesion than imidazolidine compound 5” value was “greater than 40 fold”. Besides, in data set [3] (setting [4]), the Tmax was 2 h, the half-life is 1.97 h and the Vd amounted to 1.5 L/kg. This compound yielded an AUC(0-t) in data set [3] (Balb/C) of 1060 ng·h/mL. In data set [3], the bioavailability is 18.6%. Also, in the data set with CT26 cells, the “% Reduction in Tumor Volume” value is −38.30% and the “% Reduction in Tumor Weight” value was −37.15%.
In data set [1], `O=C(O)c1ccc(-c2ccc(/C=C3\OC(=S)N(Cc4ccc(F)cc4)C3=O)o2)cc1` [Compound 8, (Z)-4-(5-((3-(4-Fluorobenzyl)-4-oxo-2-thioxooxazolidin-5-ylidene)methyl)furan-2-yl)benzoic acid] had an EC50 of 100 to 250 nM. In data set [3] (setting [4]), the Tmax came to 2 h, the half-life was 3.09 h and the Vd is 1.37 L/kg. For the same compound, the bioavailability in data set [3] worked out at 8.82%. For the same compound, in the data set with CT26 cells, the “% Reduction in Tumor Volume” value is on record as 5.25% and the “% Reduction in Tumor Weight” value is −3.08%.
In data set [1], `O=C1/C(=C/c2ccc(-c3ccc(-c4nnn[nH]4)cc3)o2)SC(=S)N1Cc1ccccc1` [Compound 42, (Z)-5-((5-(4-(1H-tetrazol-5-yl)phenyl)furan-2-yl)methylene)-3-benzyl-2-thioxothiazolidin-4-one] returned an EC50 of 250 to 1000 nM. In data set [3] (setting [4]), the Tmax is 0.5 h, the half-life is 0.77 h and the Vd amounted to 1.15 L/kg. Moreover, in data set [3] (Balb/C), the exposure AUC(0-t) amounted to 357 ng·h/mL. Also, the bioavailability in data set [3] was 4.1%.
Turning to `O=C(O)c1ccc(-c2ccc(/C=C3\SC(=S)N(Cc4ccccc4)C3=O)o2)cn1` [Compound 12, (Z)-5-(5-((3-benzyl-4-oxo-2-thioxothiazolidin-5-ylidene)methyl)furan-2-yl)picolinic acid], in data set [1], the EC50 lay within 100 to 250 nM. For the same compound, the “activity level in adhesion assay” value in data set [2] is “some of the highest activity levels”. Moreover, in data set [3] (setting [4]), the Cmax is 55 ng/mL, the Tmax stood at 0.5 h and the half-life is 1.39 h. The AUC(0-t) in data set [3] (Balb/C) amounted to 176 ng·h/mL. In the data set with CT26 cells, the “% Reduction in Tumor Volume” value is on record as −4.42% and the “% Reduction in Tumor Weight” value is listed as 11.03%.
With `O=C(O)c1ccc(-c2ccc(/C=C3\SC(=S)N(Cc4ccc(F)cc4)C3=O)o2)cc1` [Compound 32, (Z)-4-(5-((3-(4-Fluorobenzyl)-4-oxo-2-thioxothiazolidin-5-ylidene)methyl)furan-2-yl)benzoic acid], the EC50 in data set [1] lay within 100 to 250 nM.
Take `O=C(O)c1ccc(-c2cccc(/C=C3\SC(=S)N(Cc4ccc(F)cc4)C3=O)c2)cc1` [Compound 20, (Z)-3′-((3-(4-Fluorobenzyl)-4-oxo-2-thioxothiazolidin-5-ylidene)methyl)-[1,1′-biphenyl]-4-carboxylic acid]: the EC50 in data set [1] was 1000 to 10000 nM.
Consider `O=C(O)c1ccc(-c2ccc(/C=C3\SC(=S)N(Cc4ccc(F)cc4)C3=O)o2)cn1` [Compound 15, (Z)-5-(5-((3-(4-Fluorobenzyl)-4-oxo-2-thioxothiazolidin-5-ylidene)methyl)furan-2-yl)picolinic acid], for which the EC50 in data set [1] is 100 to 250 nM. Moreover, in data set [2], the “activity level in adhesion assay” value is “some of the highest activity levels”.
Regarding `O=C(O)c1ccc(-c2ccc(/C=C3\SC(=S)N(Cc4cccc(Cl)c4)C3=O)o2)cc1` [Compound 30, (Z)-4-(5-((3-(3-Chlorobenzyl)-4-oxo-2-thioxothiazolidin-5-ylidene)methyl)furan-2-yl)benzoic acid], in data set [1], the EC50 fell in the range of 100 to 250 nM.
Still for that read-out and setting: under `O=C(O)c1ccc(-c2ccc(/C=C3\SC(=S)N(Cc4ccccc4O)C3=O)o2)cc1` [Compound 41, (Z)-4-(5-((3-(2-hydroxybenzyl)-4-oxo-2-thioxothiazolidin-5-ylidene)methyl)furan-2-yl)benzoic acid] stands 1000 to 10000 nM; under `O=C(O)c1ccc(-c2ccc(/C=C3\SC(=S)N(Cc4ccc(Cl)cc4)C3=O)o2)cc1` [Compound 35, (Z)-4-(5-((3-(4-Chlorobenzyl)-4-oxo-2-thioxothiazolidin-5-ylidene)methyl)furan-2-yl)benzoic acid], 100 to 250 nM; under `O=C(O)c1ccc(-c2ccc(CN3CC(=O)N(Cc4ccccc4)C3=O)o2)cc1` [Compound 11, 4-(5-((3-Benzyl-2,4-dioxoimidazolidin-1-yl)methyl)furan-2-yl)benzoic acid], more than 10000 nM.
Compound `Cc1ccccc1CN1C(=O)/C(=C/c2ccc(-c3ccc(C(=O)O)cc3)o2)SC1=S` [Compound 26, (Z)-4-(5-((3-(2-Methylbenzyl)-4-oxo-2-thioxothiazolidin-5-ylidene)methyl)furan-2-yl)benzoic acid] displayed an EC50 in data set [1] of 250 to 1000 nM.
The same measure, in the same setting: the value for `O=C(O)c1ccc(-c2cccc(/C=C3\OC(=S)N(Cc4ccc(F)cc4)C3=O)c2)cc1` [Compound 9, (Z)-3′-((3-(4-Fluorobenzyl)-4-oxo-2-thioxooxazolidin-5-ylidene)methyl)-[1,1′-biphenyl]-4-carboxylic acid] was more than 10000 nM.
As for `CCOC(=O)c1ccc(-c2ccc(CN3CC(=S)N(Cc4ccccc4)C3=O)o2)cc1` [Compound 7, Ethyl 4-(5-((3-benzyl-2-oxo-4-thioxoimidazolidin-1-yl)methyl)furan-2-yl)benzoate], in data set [1], the EC50 is more than 10000 nM.
The same measure, in the same setting: the value for `O=C(O)c1ccc(-c2ccc(/C=C3\SC(=S)N(CC4CCCCC4)C3=O)o2)cc1` [Compound 40, (Z)-4-(5-((3-(Cyclohexylmethyl)-4-oxo-2-thioxothiazolidin-5-ylidene)methyl)furan-2-yl)benzoic acid] was 1000 to 10000 nM.
On the same count and under the same terms, the value for `O=C(O)c1ccc(-c2ccnc(/C=C3\SC(=S)N(Cc4ccc(F)cc4)C3=O)c2)cc1` [Compound 22, (Z)-4-(2-((3-(4-Fluorobenzyl)-4-oxo-2-thioxothiazolidin-5-ylidene)methyl)pyridin-4-yl)benzoic acid] was 1000 to 10000 nM.
